Data reported in publication PMC4876393, “Structure of the Dictyostelium Myosin-II Heavy Chain Kinase A (MHCK-A) α-kinase domain apoenzyme reveals a novel autoinhibited conformation” (Scientific Reports, 2016).
Non-standard residues stand in square brackets, D forms with d. Residues, ends and D or L forms follow the SMILES beside them. pT = C[C@@H](OP(=O)(O)O)[C@H](N)C(=O)O

What was measured:
eEF2K = test system: eEF2K; set-up: method as in PMID 22115317; conditions: with and without Ca^2+-calmodulin; ref [40]; cited from earlier work
A-CAT-Δ809 = molecular target: T1, A-CAT-Δ809 (Dictyostelium discoideum, UniProt P42527); experiment: Activation of truncated A-CAT-Δ809 kinase activity by phosphopeptides (Pi-pocket binding); format: biochemical; conditions: 22 °C, pH 7.0, mean and standard deviation of at least 3 separate experiments; for Kd: hyperbolic fit of A-CAT-Δ809 kinase activity vs peptide, assayed as described in ref [29], 2 mM MgCl2, 1 mM dithiothreitol, 20 mM TES; for Vmax: kinase activity as a percentage of wild-type A-CAT activity, hyperbolic fit
T1 construct: A-CAT encompasses the α-kinase domain and Thr825 autophosphorylation site of MHCK-A; made in house; host or cells: E. coli (printed for A-CAT and A-CAT-D663A)
T1 sequence (P42527 552-809 limits assumed): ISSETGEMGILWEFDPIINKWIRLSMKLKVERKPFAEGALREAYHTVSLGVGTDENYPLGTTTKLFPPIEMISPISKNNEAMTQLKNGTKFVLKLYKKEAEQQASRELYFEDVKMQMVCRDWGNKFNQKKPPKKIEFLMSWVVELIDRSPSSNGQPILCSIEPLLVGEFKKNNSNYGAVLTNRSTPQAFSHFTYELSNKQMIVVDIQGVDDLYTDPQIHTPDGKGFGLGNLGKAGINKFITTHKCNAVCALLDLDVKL
Method: (c) The kinase activity of A-CAT-Δ809 was assayed in the presence of peptides with the sequences QQG(p)TMVMPD (closed circles) or a QQG(p)TMSMPD (open circles). […] Kinase activities are reported as a percentage of wild-type A-CAT activity.
To test whether a hydrophobic residue in the P + 2 position favors binding to the Pi-pocket, experiments were carried out using a truncated A-CAT (A-CAT-Δ809) that lacks the activating Thr825 site of autophosphorylation and two phosphopeptides: one with a valine and one with a serine at the P + 2 position (QQG(p)TMVMPD and QQG(p)TMSMPD) (Fig. 3c).
Assays were carried out at 22 °C in a buffer containing 2 mM MgCl2, 1 mM dithiothreitol and 20 mM TES, pH 7.0. Kinase assays contained 20 μM myelin basic protein (MBP), 0.5–2 μM A-CAT and 200 μM [γ-^32P]ATP (specific activity 100 cpm/pmol). At each time point, 20 μl aliquots of the reaction mixture were spotted onto squares of Whatman P81 phosphocellulose paper, which were then washed 1% phosphoric acid, immersed in ScintiVerse Universal LS Mixture (Fisher Scientific), and counted using a Beckman LS 9000 scintillation counter. Assays to measure A-CAT-Δ809 activity in the presence of the QQG(p)TMVMPD and QQG(p)TMSMPD peptides were carried out as described[29]. […] Data from the initial linear portion of the time courses were used to calculate kinase and ATPase activity.

Y647A [1] = molecular target: T2, Y647A (Dictyostelium discoideum, UniProt P42527, Y647A); experiment: Nucleotide binding assay with fluorescent mant-ADP on purified A-CAT, carried out as previously described (ref 51); at least 3 separate experiments.; conditions: read-out: mant-ADP Kd; SD, n = 3
T2 construct: gene mhkA; A-CAT: alpha-kinase domain and Thr825 autophosphorylation site of MHCK-A
T2 sequence (P42527 552-841 Y647A): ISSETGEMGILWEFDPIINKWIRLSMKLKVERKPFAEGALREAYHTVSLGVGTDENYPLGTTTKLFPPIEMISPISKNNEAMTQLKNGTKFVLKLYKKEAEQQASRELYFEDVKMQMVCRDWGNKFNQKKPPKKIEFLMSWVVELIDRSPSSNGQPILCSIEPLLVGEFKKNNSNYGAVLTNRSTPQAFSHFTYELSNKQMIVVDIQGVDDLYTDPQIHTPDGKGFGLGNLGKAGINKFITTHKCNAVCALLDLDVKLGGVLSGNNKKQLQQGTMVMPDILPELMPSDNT
Method: (§1) Assays were carried out at 22 °C in a buffer containing 2 mM MgCl2, 1 mM dithiothreitol and 20 mM TES, pH 7.0. Kinase assays contained 20 μM myelin basic protein (MBP), 0.5–2 μM A-CAT and 200 μM [γ-^32P]ATP (specific activity 100 cpm/pmol). At each time point, 20 μl aliquots of the reaction mixture were spotted onto squares of Whatman P81 phosphocellulose paper, which were then washed 1% phosphoric acid, immersed in ScintiVerse Universal LS Mixture (Fisher Scientific), and counted using a Beckman LS 9000 scintillation counter. Assays to measure A-CAT-Δ809 activity in the presence of the QQG(p)TMVMPD and QQG(p)TMSMPD peptides were carried out as described. ATPase activity was assayed using 250 μM ATP and release of inorganic phosphate (Pi) was measured using the Pi ColorLock Gold phosphate detection system (Innova Biosciences). Data from the initial linear portion of the time courses were used to calculate kinase and ATPase activity. Nucleotide binding assays using mant-ATP and mant-ADP were carried out as previously described. Results represent the mean and standard deviation of at least 3 separate experiments.

D663A [2] = molecular target: T3, D663A (Dictyostelium discoideum, UniProt P42527, D663A); experiment: as above; conditions: read-out: mant-ADP Kd; SD, n = 3
T3 construct: gene mhkA; A-CAT: alpha-kinase domain and Thr825 autophosphorylation site of MHCK-A; expressed in E. coli
T3 sequence (P42527 552-841 D663A): T2 sequence (P42527 552-841 Y647A)
Method: as §1

A-CAT WT [3] = molecular target: T4, A-CAT WT (Dictyostelium discoideum, UniProt P42527); experiment: as above; conditions: SD, n = 3
T4 construct: gene mhkA; A-CAT: alpha-kinase domain and Thr825 autophosphorylation site of MHCK-A; expressed in E. coli
T4 sequence (P42527 552-841): T2 sequence (P42527 552-841 Y647A)
Method: as §1

D663S [4] = molecular target: T5, D663S (Dictyostelium discoideum, UniProt P42527, D663S); experiment: as above; conditions: read-out: mant-ADP Kd; SD, n = 3
T5 construct: gene mhkA; A-CAT: alpha-kinase domain and Thr825 autophosphorylation site of MHCK-A
T5 sequence (P42527 552-841 D663S): T2 sequence (P42527 552-841 Y647A)
Method: as §1

A-CAT Y647A = experiment: mant-nucleotide binding to A-CAT Y647A; set-up: species or system Dictyostelium; conditions: for Kd: A-CAT Y647A, 22 °C, 2 mM MgCl2, 1 mM dithiothreitol, 20 mM TES, pH 7.0, mean and standard deviation of at least 3 separate experiments; for effect of the Y647A mutation on nucleotide binding: compared with wild-type A-CAT
Method: as §1

A-CAT D663A = experiment: mant-nucleotide binding to A-CAT D663A; set-up: species or system Dictyostelium; conditions: for Kd: A-CAT D663A, 22 °C, 2 mM MgCl2, 1 mM dithiothreitol, 20 mM TES, pH 7.0, mean and standard deviation of at least 3 separate experiments; for effect of the D663A mutation on nucleotide binding: compared with wild-type A-CAT
Method: as §1

A-CAT D663S = experiment: mant-nucleotide binding to A-CAT D663S; set-up: species or system Dictyostelium; conditions: for Kd: A-CAT D663S, 22 °C, 2 mM MgCl2, 1 mM dithiothreitol, 20 mM TES, pH 7.0, mean and standard deviation of at least 3 separate experiments; for effect of the D663S mutation on nucleotide binding: compared with wild-type A-CAT
Method: as §1

A-CAT Y647F = experiment: mant-nucleotide binding to A-CAT Y647F; set-up: species or system Dictyostelium; conditions: 22 °C, 2 mM MgCl2, 1 mM dithiothreitol, 20 mM TES, pH 7.0, mean and standard deviation of at least 3 separate experiments
Method: as §1

Y647A [5] = molecular target: T2, Y647A; experiment: Nucleotide binding assay with fluorescent mant-ATP on purified A-CAT, carried out as previously described (ref 51); at least 3 separate experiments.; conditions: read-out: mant-ATP Kd; SD, n = 3
Method: as §1

Y647F = molecular target: T6, Y647F (Dictyostelium discoideum, UniProt P42527, Y647F); experiment: as above; conditions: read-out: mant-ATP Kd; SD, n = 3
T6 construct: gene mhkA; A-CAT: alpha-kinase domain and Thr825 autophosphorylation site of MHCK-A
T6 sequence (P42527 552-841 Y647F): T2 sequence (P42527 552-841 Y647A)
Method: as §1

D663A [6] = molecular target: T3, D663A; experiment: as above; conditions: read-out: mant-ATP Kd; SD, n = 3
Method: as §1

A-CAT WT [7] = molecular target: T4, A-CAT WT; experiment: as above; conditions: SD, n = 3
Method: as §1

D663S [8] = molecular target: T5, D663S; experiment: as above; conditions: read-out: mant-ATP Kd; SD, n = 3
Method: as §1

For `Nc1ncnc2c1ncn2[C@@H]1O[C@H](COP(=O)(O)OP(=O)(O)OP(=O)(O)O)[C@@H](O)[C@H]1O` [ATP], the “ATP binding to eEF2K” value (eEF2K) is given as “binds ATP in the presence and absence of Ca^2+-calmodulin” and the “UV cross-linking of ATP to eEF2K” value (eEF2K) is given as “can be UV cross-linked to ATP only in the presence of Ca^2+-calmodulin”.

For `CSCC[C@H](NC(=O)[C@@H](NC(=O)CNC(=O)[C@H](CCC(N)=O)NC(=O)[C@@H](N)CCC(N)=O)[C@@H](C)OP(=O)(O)O)C(=O)N[C@@H](CO)C(=O)N[C@@H](CCSC)C(=O)N1CCC[C@H]1C(=O)N[C@@H](CC(=O)O)C(=O)O` [QQG(p)TMSMPD] (H-QQG[pT]MSMPD-OH), the Kd (A-CAT-Δ809) was 98 ± 12 µM and the Vmax (A-CAT-Δ809) was 51 ± 3%.

Work on `CSCC[C@H](NC(=O)[C@@H](NC(=O)CNC(=O)[C@H](CCC(N)=O)NC(=O)[C@@H](N)CCC(N)=O)[C@@H](C)OP(=O)(O)O)C(=O)N[C@H](C(=O)N[C@@H](CCSC)C(=O)N1CCC[C@H]1C(=O)N[C@@H](CC(=O)O)C(=O)O)C(C)C` [QQG(p)TMVMPD] (H-QQG[pT]MVMPD-OH) yielded a Kd (A-CAT-Δ809) of 38 ± 12 µM and a Vmax (A-CAT-Δ809) of 61 ± 4%.

`CNc1ccccc1C(=O)O[C@H]1[C@@H](O)[C@H](n2cnc3c(N)ncnc32)O[C@@H]1COP(=O)(O)OP(=O)(O)O` [mant-ADP, 2'/3'-O-(N-methylanthraniloyl)adenosine 5'-diphosphate] showed a Kd (Y647A [1]) of 30 ± 2 µM, a Kd (D663A [2]) of 8 ± 2 µM and a Kd (A-CAT WT [3]) of 15 ± 2 µM. The Kd (D663S [4]) was 12 ± 2 µM.

In the case of `CNc1ccccc1C(=O)O[C@H]1[C@@H](O)[C@H](n2cnc3c(N)ncnc32)O[C@@H]1COP(=O)(O)OP(=O)(O)O` [mant-ADP], the Kd (A-CAT Y647A) is reported as 30 ± 2 µM, the “effect of the Y647A mutation on nucleotide binding” value (A-CAT Y647A) is reported as “weakened the binding” and the Kd (A-CAT D663A) is reported as 8 ± 2 µM. The “effect of the D663A mutation on nucleotide binding” value (A-CAT D663A) was “increased the affinity of A-CAT for nucleotide”, the Kd (A-CAT D663S) was 12 ± 2 µM and the “effect of the D663S mutation on nucleotide binding” value (A-CAT D663S) was “increased the affinity of A-CAT for nucleotide”. It also gave a Kd (A-CAT Y647F) of 15 ± 2 µM.

With `CNc1ccccc1C(=O)O[C@H]1[C@@H](O)[C@H](n2cnc3c(N)ncnc32)O[C@@H]1CO[P@@](=O)(O)O[P@](=O)(O)OP(=O)(O)O` [mant-ATP, 2'/3'-O-(N-methylanthraniloyl)adenosine 5'-triphosphate] the Kd (Y647A [5]) was 10 ± 3 µM, the Kd (Y647F) was 4.3 ± 1 µM and the Kd (D663A [6]) was 3.2 ± 0.9 µM. The Kd (A-CAT WT [7]) was 4.8 ± 0.6 µM and the Kd (D663S [8]) was 2.1 ± 0.5 µM.

In the case of `CNc1ccccc1C(=O)O[C@H]1[C@@H](O)[C@H](n2cnc3c(N)ncnc32)O[C@@H]1COP(=O)(O)OP(=O)(O)OP(=O)(O)O` [mant-ATP], the Kd (A-CAT Y647A) is reported as 10 ± 3 µM, the “effect of the Y647A mutation on nucleotide binding” value (A-CAT Y647A) is reported as “weakened the binding” and the Kd (A-CAT D663A) is reported as 3.2 ± 0.9 µM. The “effect of the D663A mutation on nucleotide binding” value (A-CAT D663A) was “increased the affinity of A-CAT for nucleotide”, the Kd (A-CAT D663S) was 2.1 ± 0.5 µM and the “effect of the D663S mutation on nucleotide binding” value (A-CAT D663S) was “increased the affinity of A-CAT for nucleotide”. For the same compound, the Kd (A-CAT Y647F) was 4.3 ± 1 µM.
